Results on one molecule are retold here after article PMC9293466 (Chembiochem, 2021).

This assay addresses T1, Gc4EO (Gulosibacter chungangensis, UniProt A0A7J5BGR1).
T1 sequence (A0A7J5BGR1 1-529): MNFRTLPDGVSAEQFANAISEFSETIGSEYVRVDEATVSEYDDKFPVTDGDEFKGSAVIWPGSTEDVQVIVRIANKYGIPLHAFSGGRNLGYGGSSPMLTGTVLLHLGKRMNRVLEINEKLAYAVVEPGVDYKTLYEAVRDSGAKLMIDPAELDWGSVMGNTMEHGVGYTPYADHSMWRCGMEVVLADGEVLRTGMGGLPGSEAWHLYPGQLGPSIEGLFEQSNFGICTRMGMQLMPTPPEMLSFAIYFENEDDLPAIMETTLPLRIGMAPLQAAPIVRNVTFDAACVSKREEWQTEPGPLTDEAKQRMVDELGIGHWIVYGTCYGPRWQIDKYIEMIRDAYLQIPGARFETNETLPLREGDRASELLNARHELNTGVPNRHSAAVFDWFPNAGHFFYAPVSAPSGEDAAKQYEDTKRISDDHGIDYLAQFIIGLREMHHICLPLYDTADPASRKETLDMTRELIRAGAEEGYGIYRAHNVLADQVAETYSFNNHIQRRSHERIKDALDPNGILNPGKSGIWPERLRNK
In words: X-ray crystal structure, […] Å. The class given is binding. Conditions: covalent; C8M of FAD to His395; pH 8.0 crystals.

Turning to `Cc1cc2nc3c(=O)[nH]c(=O)nc-3n(C[C@H](O)[C@H](O)[C@H](O)COP(=O)(O)OP(=O)(O)OC[C@H]3O[C@@H](n4cnc5c(N)ncnc54)[C@H](O)[C@@H]3O)c2cc1C` [FAD], the “X-ray crystal structure, 1.7 Å” value was “showing the covalent bond between the C8 M of FAD and His395”.
